Laboratory results published in patent US4374149A, “α-{[(Arylalkyl)amino]alkyl}-4-hydroxy-3-(lower-alkylsul finyl)benzenemethanols” (Sterling Drug Inc., priority 1978, dated 1983).
Where a name gives a salt, the structure may show the parent alone. Read-outs that look alike come from different tables or passages of the source.

Tests used:
[1] = tested on: β-adrenergic; assay: β-adrenergic blocking activity, inhibition of isoproterenol-elicited heart rate increase in pentobarbitalized dog; type: in vivo; conditions: i.v.; for Dog β-blockade AED50 (approximate intravenous dose for 50% inhibition of isoproterenol-elicited heart rate increase): pentobarbitalized dog
Protocol: The β-adrenergic blocking activity was determined in the pentobarbitalized dog as judged by the ability of the test compound to inhibit the elevation in heart rate elicited by a 0.5 mcg./kg. i.v. injection of isoproterenol.
^e AED50 = approximate intravenous dose required to cause 50%

[2] = tested on: Ouabain-induced arrhythmia; assay: Conversion of ouabain-induced arrhythmia in dogs; type: in vivo, mongrel dogs; design: key: active (A); inactive (I)
Protocol: (§1) The test procedures were carried out as follows.
Na-pentobarbital supplements were given i.v. as needed.
Both parameters were printed out on a Grass polygraph.

[3] = tested on: hind limb vasculature; assay: Vasodilator activity, perfusion pressure in hind limb vasculature of anesthetized dog; type: in vivo; conditions: for ED50: Canis lupus familiaris, read-out: Vasodilator activity Dog-Leg Perfusion AED50 (approximate intraarterial dose for 50 reduction in perfusion pressure); for Vasodilator activity Dog-Leg Perfusion AED50 (approximate intraarterial dose for 50 reduction in perfusion pressure): acetate salt
Description: (§2) Vasodilator activity was judged on the basis of observed reduction in perfusion pressure in the hind limb vasculature of the anesthetized dog determined according to the procedure described by Jandhyala et al., European J. Pharm. 17, 357 (1972), and also on the basis of percent reduction in perfusion pressure as measured in the isolated rabbit ear artery according to the method described by De LaLande et al., Aust. J. Exp. Biol. Med. Sci. 43, 639 (1965).
^c AED50 = approximate intraarterial dose required to cause a 50

[4] = tested on: Ba++-induced arrhythmia; assay: Conversion of Ba++-induced arrhythmia in rabbits; type: in vivo; design: key: active (A); inactive (I)
Protocol: as §1
Adult rabbits or either sex weighing between 1.7 and 2.3 kg. were anesthetized with 30 to 35 mg./kg. Na-pentobarbital i.v. via a marginal ear vein. Monoplar ECG pin electrodes were inserted for a lead II display on a Model 5 Grass Polygraph using standard electrocardiographic procedures. A 23 ga. hypodermic needle, attached via a polyethylene catheter to a 10 cc. syringe, was inserted into the same vein as was used for anesthesia. A BaCl2.2H2 O solution in saline was then infused at a constant volume of 0.2 cc/min. from a Harvard Apparatus Model 600 infusion pump. This infusion was not stopped until termination of the experiment. In some studies barium chloride in distilled water was used without detectable differences. The standard rate of BaCl2.2H2 O infusion was established at 0.3 mg./kg./min. (1.2×10^-6 M/kg./min.), and the concentration was adjusted appropriately in each case to accommodate the weight of the rabbit.
When the desired arrhythmia was established, the test compound was introduced as a water or saline solution into the marginal ear vein of the unused ear. The volume used was between 0.5 and 2.0 cc./kg. and was injected as a bolus over approximately 30 seconds. Deviations from standard vehicle, rate of injection and total volume administered were at the discretion of the operator. The standard initial dose of an unknown compound on the first rabbit was 5×10^-5 M/kg. In general, two to three rabbits were used to determine anti-arrhythmic activity and the dose range of activity; multiple doses were administered. Once activity and dose was indicated, two additional rabbits were employed to confirm anti-arrhythmic activity against a multifocal tachycardia.

[5] = tested on: isolated rabbit ear artery; assay: Vasodilator activity, perfusion pressure in isolated rabbit ear artery
Description: as §2
^d Vasodilation is expressed as the percentage reduction in perfusion

[6] = tested on: blood pressure; assay: Antihypertensive activity, sustained lowering of blood pressure, repeated oral medication, unanesthetized trained renal hypertensive dog; type: in vivo; conditions: tid.; for Actual percentage reduction in blood pressure observed at the indicated dose: 0.125 mg./kg.
Description: Antihypertensive activity was also judged on the basis of sustained reduction of blood pressure observed in the unanesthetized trained renal hypertensive dog following repeated oral medication according to the procedure described by Lape et al., Arch.
^b MED10 = minimum repeated oral daily dose required to effect a

[7] = tested on: systolic blood pressure; assay: Antihypertensive activity, reduction in systolic blood pressure, single oral medication, unanesthetized spontaneous hypertensive rat; type: in vivo; conditions: for Antihypertensive activity SH Rat AHD40 (single oral dose required to induce a 40 mm. average reduction in systolic blood pressure) / Actual reduction in blood pressure observed at the indicated dose: P.O.; for Antihypertensive activity SH Rat AHD40 (single oral dose required to induce a 40 mm. average reduction in systolic blood pressure): unanesthetized SH rat
Protocol: Antihypertensive activity was determined on the basis of the observed reduction in systolic blood pressure measured according to the method of H. Kersten et al., J. Lab. and Clin. Med. 32, 1090 (1947) following a single oral medication in the unanesthetized spontaneous hypertensive rat described by Okamato et al., Japan Circulation J. 27, 282 (1963).
^a AHD40 = single oral dose required to induce a 40 mm. average

[8] = Acute intravenous and oral toxicity in mice; type: in vivo
Protocol: Acute intravenous and oral toxicity in mice was determined for the compound of Example 2G as follows: The compound was dissolved in distilled water and administered as the base at a volume of 10 ml./kg. for the i.v. ALD50 or 10-40 ml./kg. for the p.o. ALD50. The compound was administered in graded doses to groups of three mice each (Swiss-Webster strain males weighing 20±2 g.). Mortality occurred within 1 minute after i.v. administration and within 10 minutes after oral administration. […] The i.v. ALD50 was 75 mg./kg. and the p.o. ALD50 was 1500 mg./kg.

[9] = intraarterial, anesthetized dog hind limb
[10] = 5 × 10^-5 M, 50 µM, acetate salt

SMILES | Dog β-blockade AED50 (approximate intravenous dose for 50% inhibition of isoproterenol-elicited heart rate increase) [1] | ED50 [3, 9] [mg/kg] | Conversion of Ba++-induced Arrhythmia ([4]; 2.5 × 10^-6 M/kg.) | Rabbit Ear Artery vasodilation (percentage reduction in perfusion pressure from control level) ([5]; 5 × 10^-5 M, 50 µM) [%] | Renal Hypertensive Dog MED10 (minimum repeated oral daily dose for sustained lowering of blood pressure of 10% or greater) [6] [mg/kg] | Actual percentage reduction in blood pressure observed at the indicated dose [6] [%] | Antihypertensive activity SH Rat AHD40 (single oral dose required to induce a 40 mm. average reduction in systolic blood pressure) [7] [mg/kg] | Dog β-blockade AED50 (approximate intravenous dose for 50% inhibition of isoproterenol-elicited heart rate increase) ([1]; acetate salt) [mg/kg] | Vasodilator activity Dog-Leg Perfusion AED50 (approximate intraarterial dose for 50 reduction in perfusion pressure) [3, 9] [mg/kg] | Rabbit Ear Artery vasodilation (percentage reduction in perfusion pressure from control level) [5, 10] [%] | Antihypertensive activity SH Rat AHD40 (single oral dose required to induce a 40 mm. average reduction in systolic blood pressure) ([7]; acetate salt) [mg/kg] | further results
CC(=O)O.CC(CCc1ccccc1)NCC(O)c1ccc(O)c([S+](C)[O-])c1 (stereo not drawn) [Example 19C, 4-hydroxy-α-{[(1-methyl-3-phenylpropyl)amino]methyl}-3-(methylsulfinyl)benzenemethanol acetate salt] | < 0.025 mg/kg | 0.5 | A | 50 | > 0.125 | 0 | 20.0 | – | – | – | – | Actual percentage inhibition of heart rate increase above control level observed at the indicated dose ([1]; 0.025 mg./kg.): 67%; Conversion of Ouabain-induced Arrhythmia ([2]; 5 × 10^-5 M/kg.): A
COc1ccc(CCC(C)NCC(O)c2ccc(O)c([S+](C)[O-])c2)cc1 (stereo not drawn) [Example 9D, 4-hydroxy-α-<{[3-(4-methoxyphenyl)-1-methylpropyl]amino}methyl>-3-(methylsulfinyl)benzenemethanol acetate salt] | – | – | – | – | – | – | – | 0.0125 | > 0.025 | 61 | 20.0 | Actual percentage reduction in perfusion pressure observed at the indicated dose ([3]; 0.025 mg./kg. intraarterial): 25%
CC(CCc1ccc(O)cc1)NCCc1ccc(O)c([S+](C)[O-])c1 (single isomer, unassigned) [Example 30E, 4-<2-{[3-(4-hydroxy-phenyl)-1-mehylpropyl]amino}ethyl>-2-(methylsulfinyl)phenol hydrochloride] | ca. 0.50 mg./kg. | – | – | – | – | – | > 50 | – | – | – | – | Conversion of Ouabain-induced Arrhythmia ([2]; 1 × 10^-5 M/kg.): A; Conversion of Ba++-induced Arrhythmia ([4]; 2 × 10^-5 M/kg.): A; Actual reduction in blood pressure observed at the indicated dose ([7]; 50 mg./kg.): -3 mm. Hg
COc1ccc(CCC(C)(C)NCCc2ccc(O)c([S+](C)[O-])c2)cc1 (stereo not drawn) [Example 34C, 4-<2-{[3-(4-methoxyphenyl)-1,1-dimethylpropyl]amino}ethyl>-2-(methylsulfinyl)phenol hydrochloride] | > 1.0 mg/kg | – | A | – | – | – | > 50 | – | – | – | – | Actual percentage inhibition of heart rate increase above control level observed at the indicated dose ([1]; 1.0 mg./kg.): 40%; Conversion of Ouabain-induced Arrhythmia ([2]; 2 × 10^-5 M/kg.): A; Actual reduction in blood pressure observed at the indicated dose ([7]; 50 mg./kg.): -8 mm. Hg
COc1ccc(CCC(C)NCC(O)c2ccc(O)c([S+](C)[O-])c2)cc1 (stereo not drawn) [Example 2H, 4-hydroxy-α-<{[3-(4-methoxyphenyl)-1-methylpropyl]amino}methyl>-3-(methylsulfinyl)benzenemethanol acetate salt] | – | – | – | – | – | – | – | 0.025 | 0.5 | 20 | 9.0 | –
COc1ccc(CCCNCC(O)c2ccc(O)c([S+](C)[O-])c2)cc1 (stereo not drawn) [Example 20C, 4-hydroxy-α-<{[3-(4-methoxyphenyl)propyl]amino}methyl>-3-(methylsulfinyl)benzenemethanol acetate salt] | < 0.1 mg/kg | 0.5 | – | – | > 0.125 | 0 | 7.0 | – | – | – | – | Actual percentage inhibition of heart rate increase above control level observed at the indicated dose ([1]; 0.1 mg./kg.): 67%; Rabbit Ear Artery vasodilation (in words) ([5]; concentration not given): constrictor
CC(=O)O.C[S+]([O-])c1cc(C(O)CNC(C)(C)CCc2ccccc2)ccc1O (stereo not drawn) [Example 17C, α-{[(1,1-dimethyl-3-phenylpropyl)amino]methyl}-4-hydroxy-3-(methylsulfinyl)benzenemethanol acetate salt] | 0.05 mg/kg | 0.5 | A | 50 | – | – | > 20.0 | – | – | – | – | Conversion of Ouabain-induced Arrhythmia ([2]; 5 × 10^-6 M/kg.): A; Actual reduction in blood pressure observed at the indicated dose ([7]; 20 mg./kg.): -37 mm. Hg
COc1ccc(CC(C)NCC(O)c2ccc(O)c([S+](C)[O-])c2)cc1OC (stereo not drawn) [Example 16C, α-<{[2-(3,4-dimethoxyphenyl)-1-methylethyl]amino}methyl>-4-hydroxy-3-(methylsulfinyl)benzenemethanol acetate salt] | > 0.1 mg/kg | – | – | 75 | – | – | 15.0 | – | – | – | – | Actual percentage inhibition of heart rate increase above control level observed at the indicated dose ([1]; 0.1 mg./kg.): 38%; ED50 [3]: 0.5 mg/kg
COc1ccc(CCC(C)NCC(O)c2ccc(O)c([S+](C)[O-])c2)cc1 (stereo not drawn) [Example 2G, 4-hydroxy-α-<{[3-(4-methoxyphenyl)-1-methylpropyl]amino}methyl>-3-(methylsulfinyl)benzenemethanol acetate salt] | – | – | – | – | 0.0316 | – | – | 0.025 | 0.5 | 50 | 2.0 | Time of mortality after i.v. administration ([8]; i.v.): ≤ 1 min; Symptoms of acute intoxication for the fatalities ([8]; mouse, in vivo): atoxia, loss of righting reflux, clonic convulsions and dyspnea followed by respiratory arrest; Untoward symptoms in survivors ([8]; mouse, in vivo): no untoward symptoms observed for up to 7 days for the survivors; LD50 ([8]; mouse, in vivo, iv): 75 mg/kg; LD50 ([8]; mouse, in vivo, po): 1500 mg/kg; Time of mortality after oral administration ([8]; oral): ≤ 10 min; Antihypertensive activity (in words) ([7]; standard pharmacological tests on representative examples): high antihypertensive activity
COc1ccc(CCC(C)(C)NCC(O)c2ccc(O)c([S+](C)[O-])c2)cc1 (stereo not drawn) [Example 18D, α-<{[1,1-dimethyl-3-(4-methoxyphenyl)propyl]amino}methyl>-4-hydroxy-3-(methylsulfinyl)benzenemethanol acetate salt] | < 1.0 mg/kg | 0.5 | – | – | > 0.125 | 0 | > 20.0 | – | – | – | – | Actual percentage inhibition of heart rate increase above control level observed at the indicated dose ([1]; 1.0 mg./kg.): 100%; Conversion of Ba++-induced Arrhythmia ([4]; 5 × 10^-6 M/kg.): A; Rabbit Ear Artery vasodilation (percentage reduction in perfusion pressure from control level) ([5]; 1 × 10^-4 M, 100 µM): 42%; Actual reduction in blood pressure observed at the indicated dose ([7]; 20 mg./kg.): -26 mm. Hg
